Columns and labels:
COX-1 = COX-1 protein expression in IL-1β-stimulated A549 cells (western blotting); assay type: cell-based; conditions: IL-1β with SIN or DEX for 48 h
Method: RAW264.7 and A549 cell lines were obtained from American Type Culture Collection (ATCC, Manassas, Va., USA) and maintained in DMEM (RAW264.7) or 1640 (A549) medium containing 10% FBS (Gibco-BRL, Grand Island, N.Y., USA) and antibiotics at 37° C. in a humidified atmosphere containing 5% CO2. RAW264.7 cells were plated in 6-well plates at a density of 4×10^5 cells and incubated for 24 h, then the cells were pretreated with different concentrations of SIN for 1 h before stimulating with LPS (100 ng/ml). A549 cells were seeded in 6-well plates at a density of 1×10^5 cells and incubated for 24 h, followed by pretreatment with SIN. A549 cells were then stimulated by IL-1β (1 ng/ml).
Whole-cell and nuclear proteins were obtained using RIPA lysis buffer (CST, Boston, Mass., USA) and Nuclear and Cytoplasmic Extraction Reagents kit from Thermo Scientific (Asheville, N.C., USA), respectively. For immunoblotting, proteins from whole-cell, cytoplasm, nuclear, and microsomal fractions were separated on SDS-PAGE, then transferred onto a nitrocellulose membrane from GE Healthcare Life Sciences (Buckinghamshire, UK), and incubated with 5% skimmed milk at room temperature for 1 h. […] The levels of protein expression were measured using Odyssey v3.0 software from Li-COR (Lincoln, Nebr., USA).

PGE2 = experiment: RNA interference experiment of mPGES-1: PGE2 production in mPGES-1 knockdown RAW264.7 cells; assay type: cell-based, mouse; conditions: mPGES-1 siRNA RAW264.7 cells; SIN 640 μM or DEX 0.5 μM 1 h, LPS 10 ng/mL 18 h
Method: RAW264.7 cells were transfected with ON-TARGETplus SMARTpool mPGES-1 siRNA (mPGES-1 siRNA) or nonspecific siRNA (NS siRNA) using HiPerFect transfection reagent according to the manufacturer's recommended protocols. After 24 h of transfection, the cells were treated with or without SIN (640 μM) or DEX (0.5 μM) in complete growth medium. After 1 h, all groups were stimulated with LPS (10 ng/mL) for 18 h except the control group. Then the cell culture media were collected and stored at −20° C. for later analysis of the levels of PGE2. Cells were harvested for qRT-PCR, the mouse primers used are listed as follows: […]

PGI2 = PGI2 level in culture supernatants of LPS-activated rat peritoneal macrophages (ELISA); assay type: cell-based; conditions: LPS-stimulated rat peritoneal macrophages, culture supernatant
Method: (§1) Sprague-Dawley (SD) rats from the University of Hong Kong were housed in cages with free access to food and water. Peritoneal macrophages of SD rats were isolated as described in Liu J. et al., Pharmacological research 2016, 111:303-315. Briefly, untreated rats were sacrificed and after laparotomy, about 50 ml cold sterile Hank's balanced salt solution (HBSS) was used to lavage the peritoneal cavity at twice, and then the peritoneal lavage fluid was collected and centrifuged at 1500 rpm for 10 min. The cell pellets was suspended at a density 1.5×10^6 cells/ml in pre-hearted DMEM medium with 10% heat-inactivated FBS, penicillin G (100 units/ml), streptomycin ([…]), and L-glutamine (2 mM), followed by seeding in 6-well plates at a density of 4.5×10^6 cells and incubation for 2 h. Then the medium were discarded to remove the non-adherent cells. The adherent cells were further washed for two times with pre-heated DMEM medium to remove floating cells. Next, cells were pre-treated with various concentration of SIN for 1 h, followed by stimulation with LPS (1 μg/ml).
(§2) RAW264.7 cells and rat peritoneal macrophages were seeded in a 96-well plate at density of 1.4×10^4 and 1.5×10^5 cells, respectively. […] The optical density was measured at 570 nm against a reference wavelength of 650 nm using a microplate UV/VIS spectrophotometer (Tecan, Mannedorf, Switzerland). […]

TXA2 = TXA2 level in culture supernatants of LPS-activated rat peritoneal macrophages (ELISA); assay type: cell-based; conditions: LPS-stimulated rat peritoneal macrophages, culture supernatant
Method: as §1, §2

p65 = experiment: Nuclear translocation of p65 in LPS-stimulated RAW264.7 cells (immunofluorescence); assay type: cell-based, mouse; conditions: 640 μM SIN 1 h, then LPS
Method: RAW 264.7 cells were seeded on glass coverslip at a density 2.0×10^5 cells/well in 6-well plates and incubated for 24 h. Cells were pretreated with 640 μM SIN for 1 h and followed stimulated by LPS (100 ng/ml) for another 1 h. Rat primary peritoneal macrophages were grown on glass coverslip at a density 4.5×10^6 cells/well in 6-well plates and pretreated with 640 μM SIN for 1 h, and then challenged with LPS (1 μg/ml) for another 30 min (for NF-κB) or 2 h (for C/EBPβ). Cells were fixed with 4% paraformaldehyde for 30 min at room temperature and then blocked for 1 h with 5% BSA in PBS containing 0.1% Triton X-100. Then incubated with a primary antibodies for overnight and followed by Alexa Fluor 594-labeled goat anti-rabbit IgG. Cells were washed three times, and stained with DAPI for 30 min. After a wash step, cells were fixed on the slide and the images were acquired using a LeicaDM2500 fluorescent microscope (Leica Microsystems GmbH, Wet-zlar, Germany).

TNF-α = TNF-α level in LPS-stimulated rat peritoneal macrophages (ELISA); assay type: cell-based; conditions: pretreatment 1 h, LPS 1 μg/ml 24 h
Method: as §1, §2

COC1=C[C@@H]2[C@@H]3Cc4ccc(OC)c(O)c4[C@]2(CCN3C)CC1=O [SIN, sinomenine]
COX-1 protein expression (COX-1): did not suppress | change of the compound's inhibitory effect on PGE2 production by mPGES-1 knockdown (PGE2): not affected | level of PGI2 (PGI2): no significant influence | level of TXA2 (TXA2): no significant influence | nuclear translocation of p65 (p65): did not produce observable effects | TNF-α production (TNF-α): significantly inhibited

— patent publication US20190070170A1, “METHOD OF S[…]-1” (Macau University of Science and Technology, priority 2017, published 2019)
